One assay has as its system Saccharomyces cerevisiae. Nature of the assay: Antimicrobial activity against Saccharomyces cerevisiae ATCC 9763 incubated for 48 hrs by broth dilution method. Type of assay: functional, organism-based. The following applies: ATCC 9763, 48 h.
Another assay concerns Candida albicans. Nature of the assay: Antimicrobial activity against Candida albicans ATCC 10231 incubated for 48 hrs by broth dilution method. The following applies: ATCC 10231, 48 h. It counts as functional, organism-based.
For another assay, the system named is Bacillus subtilis. Description: Antimicrobial activity against Bacillus subtilis ATCC 6633 incubated for 48 hrs by broth dilution method. It counts as functional, organism-based. The following applies: ATCC 6633, 48 h.
The test system of a further assay is Staphylococcus aureus. Nature of the assay: Antimicrobial activity against Staphylococcus aureus BAA-2313 incubated for 48 hrs by broth dilution method. Type of assay: functional, organism-based. The note with it: BAA-2313, 48 h.
The next assay relates to A549. Nature of the assay: Cytotoxicity against human A549 cells assessed as inhibition of cell growth incubated for 48 hrs by SRB assay. Type of assay: functional, cell-based. The following applies: A549, 48 h.
The subject of a further assay is SK-OV-3. Description: Cytotoxicity against human SKOV3 cells assessed as inhibition of cell growth incubated for 48 hrs by SRB assay. Type of assay: functional, cell-based. The note with it: SK-OV-3, 48 h.
The test system of the next assay is SK-MEL-2. Description: Cytotoxicity against human SK-MEL-2 cells assessed as inhibition of cell growth incubated for 48 hrs by SRB assay. Type of assay: functional, cell-based. The following applies: SK-MEL-2, 48 h.
The test system of the next assay is HCT-15. Description: Cytotoxicity against human HCT15 cells assessed as inhibition of cell growth incubated for 48 hrs by SRB assay. It counts as functional, cell-based. The note with it: HCT-15, 48 h.

In brackets after ≈: the same amount, converted by molar mass.

With `C[C@@H]1[C@H](O)[C@@H](C)/C=C/C=C/C=C/C=C/C=C/C=C/C=C/[C@H](O[C@@H]2O[C@H](C)[C@@H](O)[C@H](N)[C@@H]2O)C[C@@H]2O[C@](O)(C[C@@H](O)C[C@@H](O)[C@H](O)CC[C@@H](O)C[C@@H](O)CC(=O)O[C@H]1C)C[C@H](O)[C@H]2C(=O)O` [AMPHOTERICIN B], in the assay with Saccharomyces cerevisiae, the midpoint of inhibition, the IC50, lay at 0.5 µg/mL (≈ 0.541 µM) and the MFC is 5 µg/mL (≈ 5.41 µM). In the assay on Candida albicans, this compound yielded an IC50 of 2.1 µg/mL (≈ 2.27 µM) and an MFC of 5 µg/mL (≈ 5.41 µM).
Consider `CC[C@@H](C)C(=O)c1c(O)cc(O)cc1CC(=O)O`, for which the IC50 with Bacillus subtilis was 84.1 µg/mL (≈ 333 µM); in the assay on Staphylococcus aureus it was 140 µg/mL (≈ 556 µM); in the assay on Saccharomyces cerevisiae, greater than 200 µg/mL; in the assay with Candida albicans it was greater than 200 µg/mL; in the assay with A549 it was greater than 30 µM; in the assay with SK-OV-3, greater than 30 µM. Besides, the IC50 in the assay with SK-MEL-2 and in the assay with HCT-15 was greater than 30 µM throughout. The MIC stood at 150 µg/mL (≈ 595 µM) with Bacillus subtilis and 200 µg/mL (≈ 793 µM) with Staphylococcus aureus.
`COc1cccc2c1C(=O)c1c(O)c3c(c(O)c1C2=O)C[C@@](O)(C(=O)CO)C[C@@H]3O[C@H]1C[C@H](N)[C@H](O)[C@H](C)O1` [DOXORUBICIN]: the half-maximal inhibitory concentration (IC50) in the assay with HCT-15 is 0.109 µM.
Regarding `CN[C@@H]1[C@H](O[C@H]2[C@H](O[C@H]3[C@H](O)[C@@H](O)[C@H](N=C(N)N)[C@@H](O)[C@@H]3N=C(N)N)O[C@@H](C)[C@]2(O)C=O)O[C@@H](CO)[C@H](O)[C@H]1O.CN[C@@H]1[C@H](O[C@H]2[C@H](O[C@H]3[C@H](O)[C@@H](O)[C@H](N=C(N)N)[C@@H](O)[C@@H]3N=C(N)N)O[C@@H](C)[C@]2(O)C=O)O[C@@H](CO)[C@H](O)[C@H]1O.O=S(=O)(O)O.O=S(=O)(O)O.O=S(=O)(O)O` [STREPTOMYCIN SULFATE], in the assay with Bacillus subtilis, the midpoint of inhibition, the IC50, lay at 4.5 µg/mL and the MIC is 5 µg/mL. Besides, in the assay on Staphylococcus aureus, the IC50 stood at 8.5 µg/mL and inhibition of growth (MIC) required 10 µg/mL.
With `C[C@@H]1O[C@@H](O[C@@H]2[C@@H](O)[C@H](OCCc3ccc(O)c(O)c3)O[C@H](CO)[C@@H]2OC(=O)/C=C/c2ccc(O)c(O)c2)[C@H](O)[C@H](O)[C@H]1O`, the half-inhibitory concentration (IC50) in the assay with Bacillus subtilis was 106 µg/mL (≈ 169 µM); in the assay with Staphylococcus aureus, 165 µg/mL (≈ 264 µM); in the assay on Saccharomyces cerevisiae, greater than 200 µg/mL; in the assay on Candida albicans it was greater than 200 µg/mL; in the assay on A549 it was 6.78 µM; in the assay with SK-OV-3 it was 9.52 µM. The IC50 amounted to 4.5 µM in the assay on SK-MEL-2 and 7.03 µM in the assay on HCT-15. Also, the figures for the minimal inhibitory concentration (MIC) with Bacillus subtilis and in the assay with Staphylococcus aureus were 150 µg/mL (≈ 240 µM) and 200 µg/mL (≈ 320 µM), respectively.
With `C[C@@H]1O[C@@H](O[C@@H]2[C@@H](O)[C@H](OCCc3ccc(O)c(O)c3)O[C@H](CO)[C@H]2OC(=O)/C=C/c2ccc(O)c(O)c2)[C@H](O)[C@H](O)[C@H]1O` [ACETOSIDE], the IC50 in the assay with Bacillus subtilis was 98.5 µg/mL (≈ 158 µM); with Staphylococcus aureus, 156 µg/mL (≈ 249 µM); with Saccharomyces cerevisiae, greater than 200 µg/mL; with Candida albicans, greater than 200 µg/mL; in the assay with A549, 5.81 µM; in the assay on SK-OV-3, 7.61 µM. Moreover, the IC50 with SK-MEL-2 came out at 8.52 µM; in the assay on HCT-15, 2.73 µM. Also, the MIC was determined as 150 µg/mL (≈ 240 µM) in the assay with Bacillus subtilis and 200 µg/mL (≈ 320 µM) in the assay with Staphylococcus aureus.

Values taken from ChEMBL document CHEMBL3588751, “A new antibacterial octaketide and cytotoxic phenylethanoid glycosides from Pogostemon cablin (Blanco) Benth” (Bioorg Med Chem Lett, 2015).
